The record followed here is PMC7961786, “Magic Peptide: Unique Properties of the LRR11 Peptide in the Activation of Leukotriene Synthesis in Human Neutrophils” (International Journal of Molecular Sciences, 2021).

Data set [1] concerns human neutrophils (PMNLs), 5-LOX product synthesis. Description: 5-LOX metabolite synthesis in human neutrophils stimulated with opsonized S. typhimurium (HPLC). The data set is classed as cell-based. The method, then: Figure 1 Effects of LRR11 and ODNs on the formation of LTB4 (A,B) and the sum of 5-LOX metabolites (ω-OH-LTB4, LTB4 and its isomers, and 5-HETE) (C) in human PMNLs. PMNLs (2 × 10^7) were incubated for 15 min at 37 °C without (black bars) or with 1 μM LRR11 (A, LRR11_first); then ODNs and LRR11 or LPS were added; various ways of adding ODN and LRR11 peptide are indicated. In control samples, Hanks’ solution was added instead of ODNs. After 20 min, 0.5 × 10^9 S. typhimurium bacterial cells were added for a further 15 min. The 5-LOX products were determined using HPLC. Values indicate mean ± SEM of five independent experiments performed in duplicate. * p < 0.05, ** p < 0.01, *** p < 0.005, compared with the control. # p < 0.05, ## p < 0.01 for pairs of data compared as indicated by two-way ANOVA followed by Tukey’s multiple comparison test.
Figure 3 Synthesis of the 5-LOX metabolites in PMNLs exposed to opsonized S. typhimurium bacteria in the presence of the RAGE antagonist FPS-ZM1. PMNLs (2 × 10^7) were incubated for 15 min at 37 °C without additives or with 0.15 µM FPS-ZM1, for the next 20 min the mixture was incubated with 1 µM ODNs without (black bars) or with 1 µM LRR11 (gray bars) before adding 5 × 10^8 S. typhimurium for 15 min. In control samples, Hanks’ solution was added instead of ODNs. The 5-LOX products were determined using HPLC. Graphical data are presented for LTB4 (A) or the sum of LTB4 and its isomers, ω-OH-LTB4 and 5-HETE, designed as Σ5LOX products (B).
Human neutrophils were isolated from freshly taken citrate-anticoagulated peripheral blood from healthy individuals using standard methods. Leukocyte-rich plasma was prepared by sedimentation of erythrocytes with 3% dextran T-500 at room temperature. For purification of granulocytes, centrifugation through Ficoll-Paque (density 1.077 g/mL) was used, followed by hypotonic lysis of the remaining erythrocytes. […] All methods were performed in accordance with the relevant instructions and regulations of the Ministry of Health of the Russian Federation and local legislation.
Bacteria (S. typhimurium IE 147 strain) obtained from the Collection of Gamaleya National Research Center of Epidemiology and Microbiology (Moscow, Russia) were grown in Luria–Bertani broth to a concentration of 1 × 10^9 colony-forming units (CFU)/mL. The bacteria were collected by centrifugation at 2000 g and opsonized immediately before the experiment for 30 min in 20% (v/v) fresh serum from the same donor whose blood was used to isolate neutrophils. Repeated centrifugation in Dulbecco’s solution was used to wash the bacteria.
The cell suspension (2 × 10^7 PMNLs in HBSS/HEPES, reaction volume of 6 mL) was cultured for 15 min in an incubator at 37 °C, 5% CO2. Then 1.0 µM ODN with or without 1.0 µM LRR11, or 2 µg/mL LPS, was added as indicated. After 20 min, the cells were stimulated with S. typhimurium (the ratio of bacteria to PMNLs was approximately 20:1) for the next 15 min [3]. The synthesis of 5-LOX metabolites was stopped by adding an equal volume of methanol at −20 °C with prostaglandin B2 as an internal standard. Samples were stored at −20 °C. The denatured cell suspension was centrifuged, and supernatants designated as water/methanol extracts.
(§1) To purify the water/methanol extracts, solid-phase extraction was used on Sep-Pak C18 cartridges (500 mg; Macherey-Nagel, Dueren, Germany), which were conditioned first with methanol, and then with water. Major 5-LOX metabolites were identified by comparing retention times with those of known compounds, as previously described.
Table S1. Effect of Chloroquine on 5-LOX product formation in PMNLs after ODN priming followed by the addition
of opsonized S. typhimurium bacteria.

Data set [2] deals with PMNLs, 5-LOX product formation. Put plainly: 5-LOX product formation in PMNLs stimulated by calcium ionophore A23187. The data set is classed as cell-based, human. The following applies: 1 µM A23187 alone for 10 min, after 30 min at 37 °C without inhibitor; mean ± SEM, three independent experiments. Here is the method: Human neutrophils were isolated from freshly taken citrate-anticoagulated peripheral blood from healthy individuals using standard methods. Leukocyte-rich plasma was prepared by sedimentation of erythrocytes with 3% dextran T-500 at room temperature. For purification of granulocytes, centrifugation through Ficoll-Paque (density 1.077 g/mL) was used, followed by hypotonic lysis of the remaining erythrocytes. PMNLs were washed twice in PBS, resuspended at 10^7 cells/mL (96–97% purity, 98–99% viability) in Dulbecco’s PBS containing 1 mg/mL glucose (no CaCl2) and stored at room temperature. All methods were performed in accordance with the relevant instructions and regulations of the Ministry of Health of the Russian Federation and local legislation.
as §1

The next data set concerns 5′-biotinylated C-CpG. Description: TSM acoustic biosensor, peptide binding to immobilized C-CpG. The following applies: up to 100 nM URP, immobilized C-CpG; Figure 4A. An excerpt: (§2) To characterize the interaction of the studied synthetic ODNs with the LRR11 peptide, we applied the thickness shear mode (TSM) acoustic biosensor method, which is based on the investigation of ultrasonic waves in piezoelectric materials such as AT-cut quartz. This approach involved immobilizing a 5′-biotinylated ODN on the surface of TSM transducer covered by NeutrAvidin and then adding the LRR11 peptide. An unrelated peptide (URP) with a random primary structure ([…]) was used as a negative control. The measurement procedure was divided into several steps, in which each immobilization stage was followed by washing with an appropriate buffer solution; when peptide solutions at different concentrations (from 1 to 100 nM) were added to the surface-modified TSM transducer, a wash with Hanks buffer was used before increasing the peptide concentration.
(§3) Based on Langmuir isotherm Equation (1), (1) Δfcc=Δfsmaxc/KD+c where Δfs(c) is the frequency change at a certain peptide concentration under equilibrium conditions, (Δfs)max is the maximum frequency change, c is the peptide concentration, and KD is the equilibrium constant of dissociation, we estimated the (Δfs)max and KD values for binding of the LRR11 peptide to C-CpG and B-CpG (Table 3).
Using Sauerbrey’s Equation (2), (2) Δf=−2f02Δm/Aμqρq where f0 is the fundamental resonance frequency (in our case 8 MHz), Δm is the change in mass (in grams) of the adsorbed layer on the crystal surface, A is the effective crystal area (in our case 0.2 cm^2), μq = 2.947 × 10^11 g × cm^−1s^−2 is the shear modulus of elasticity, and ρq = 2.648 g × cm^−3 is the crystal density, surface concentrations of NeutrAvidin, ODN and LRR11 peptide were estimated based on changes of resonance frequency (Figure 4). According to Equation (2), the surface density of molecules, σ (in molecules/cm^2), can be calculated as σ = ΔmNA/(A × Mw), where NA is Avogadro’s number (=6.023 × 10^23 mol^−1), and Mw represents the molecular weight of the corresponding compound (NeutrAvidin: 65 kDa, 5′-biotinylated C-CpG: 7115.4 Da, and LRR11: 3421 Da). Based on this approach, we obtained the following surface concentration values: 1.94 × 10^13 cm^−2 for NeutrAvidin, 3.37 × 10^13 cm^−2 for C-CpG and 2.4 × 10^13 cm^−2 for LRR11. The NeutrAvidin has four binding sites, two of which are available for biotinylated ODN binding. This is due to the fact that the other two sites are inaccessible due to NeutrAvidin chemisorption on the TSM surface. Thus, the number of available binding sites for the ODN is 3.88 × 10^13 cm^−2. […] Therefore, the surface of the TSM transducer is practically completely saturated by C-CpG. Estimation of the surface concentration of LRR11 evidences that at 50 nM concentration of this peptide, it occupies almost 70.6% of the ODN molecules. […]

The next data set deals with 5′-biotinylated B-CpG. Put plainly: TSM acoustic biosensor, peptide binding to immobilized B-CpG. The following applies: URP, immobilized B-CpG.
Description: as §2, §3
Eight MHz AT-cut piezoelectric quartz crystal transducer was obtained from CH Instruments, Austin, TX, USA. The transducer was covered on both sides with thin layers of gold that served as electrodes (working area 0.2 cm^2). Prior ODNs immobilization, the crystal was carefully cleaned with basic Piranha solution (29% NH3, 30% H2O and H2O2 with volumetric 1:5:1 ratio, respectively) for 25 min. After the thorough cleaning, the crystal was positioned between two silicon O-rings in a flow-through cell. The analyte was injected into the cell using a Genie Plus syringe pump (Kent Scientific, Torrington, CT, USA) at a flow rate of 50 μL/min. Each solution was applied until the resonance frequency stabilized. The surface of the transducer was first washed with deionized water, and then 125 μg/mL NeutrAvidin (WWR International GmbH, Vienna, Austria) solution in water was applied. Approximately 15 min were required to stabilize the signal at a constant NeutrAvidin flow rate. This was followed by washing with water to rinse out all non-chemisorbed NeutrAvidin molecules. Immobilization of ODN on the gold surface of the crystals is accomplished using avidin–biotin interactions. A 1 μM 5′-biotinylated ODN solution was injected over the neutravidin-modified surface and subsequently the crystal was washed again with water. The system was then equilibrated using Hanks buffer solution. This buffer was suitable for studying LRR11–ODN binding. Then LRR11 was used at concentrations of 1, 5, 10, 50 and 100 nM […] in Hanks buffer. After each addition of LRR11, the sensor surface was washed with Hanks buffer and LRR11 with the higher concentration was added. All binding experiments were carried out at room temperature. Buffer and sample solutions were introduced in a flow-through format. A network analyzer 8712ES (Agilent Technologies, Santa Clara, CA, USA) was used to measure the impedance properties of the sensor and determine fS and Rm.

Data set [3] relates to 5′-biotinylated G-rich ODN. Put plainly: TSM acoustic biosensor, peptide binding to immobilized G-rich ODN. The following applies: URP, immobilized G-rich ODN.
Description: as §2
(§4) Eight MHz AT-cut piezoelectric quartz crystal transducer was obtained from CH Instruments, Austin, TX, USA. The transducer was covered on both sides with thin layers of gold that served as electrodes (working area 0.2 cm^2). Prior ODNs immobilization, the crystal was carefully cleaned with basic Piranha solution (29% NH3, 30% H2O and H2O2 with volumetric 1:5:1 ratio, respectively) for 25 min. After the thorough cleaning, the crystal was positioned between two silicon O-rings in a flow-through cell. […]

For another data set, the system named is NeutrAvidin. Put plainly: TSM acoustic biosensor, unspecific binding to NeutrAvidin in the absence of ODNs.
Description: as §2, §4

Oligonucleotides are written 5' to 3', each unit as a sugar letter and its base; * is a phosphorothioate linkage, no mark a phosphodiester; rarer units and linkages stand in square brackets, end groups in braces. Plain capitals give the bases only. d = 2'-deoxy (DNA)

For “5′- ggGGACGACGTCGTGgggggg-3′ (DNA dG*dG*dGdGdAdCdGdAdCdGdTdCdGdTdGdG*dG*dG*dG*dG*dG) [A-CpG]”, the “effect on 5-LOX activity / leukotriene synthesis” value in data set [1] (ODN alone, 1 µM, 20 min, then opsonized S. typhimurium 15 min, Figure 1, five independent experiments in duplicate) was “did not significantly affect 5-LOX activity”. The “Σ 5-LOX metabolites” value in data set [1] (Table S1, 2×10^7 PMNLs, 15 min at 37 °C without or with 5 µM Chloroquine, then ODN, after 20 min 0.5×10^9 opsonized S. typhimurium for 15 min, mean ± SEM, three independent experiments) was determined as 18.4 ± 2.1 ng/107 PMNLs.
As for `CNc1ccc2oc(C[C@H]3O[C@@]4(CC[C@H]3C)O[C@H]([C@H](C)C(=O)c3ccc[nH]3)[C@H](C)C[C@H]4C)nc2c1C(=O)O` [A23187], the “Σ 5-LOX metabolites” value in data set [2] is recorded as 416 ± 37 ng/10^7 PMNLs.
With “LQTLDLRDNALTTIHFIPSIPD [URP, unrelated peptide with a random primary structure, negative control, reference compound]”, in the data set with 5′-biotinylated C-CpG, the “frequency reduction by URP” value is “no frequency reduction was occurred even after the addition of 100 nM URP”. For the same molecule, the “interaction of URP with ODN” value was “absence of interactions between the URP and ODNs” with 5′-biotinylated B-CpG; “absence of interactions between the URP and ODNs” in data set [3]. Also, the “unspecific binding to NeutrAvidin” value in the data set on NeutrAvidin is reported as “no unspecific biding”.
